Source: PMC3852661, “Structural basis of SUFU–GLI interaction in human Hedgehog signalling regulation” (Acta Crystallographica Section D: Biological Crystallography, 2013)

Columns and labels:
[1] = tested on: MBP-SUFU-FL, mutation of Asp159; test: Microscale thermophoresis, MBP-SUFU-FL mutated at Asp159; assay type: binding, human; details: mutation of Asp159 in MBP-SUFU-FL, data not shown
Description: (§1) A 5-FAM-labelled peptide (FAM-GLI1p) comprising residues 115–131 of GLI1 (Supplementary Table S1b) was synthesized by Pepceuticals Ltd. A titration series of each recombinant protein was prepared by serial 1:1 dilutions in MST buffer (50 mM Tris–HCl pH 7.6, 150 mM NaCl, 10 mM MgCl2, 0.05% Tween-20) and mixed in a 1:1 ratio with FAM-GLI1p to give final concentrations of 50 nM FAM-GLI1p with MBP-SUFU constructs in the ranges 14.2–29 070 and 54–110 500 nM. Reactions were aspirated into glass capillaries and the thermophoretic movement of FAM-GLI1p was monitored using a Monolith NT.115 instrument (NanoTemper Technologies; Wienken et al., 2010[▶]), with a laser on for 30 s and off for 5 s and a laser power/voltage of 20% for MBP-SUFU-FL and the MBP-SUFU-FL mutants, 40% for MBP-SUFU-Δ and 80% for MBP-SUFU-SH. Fluorescence was measured before laser heating (F Cold) and after 30 s of laser-on time (F Hot). The normalized fluorescence F Hot/F Cold reflects the concentration ratio of labelled molecules. F Hot/F Cold was plotted directly and multiplied by a factor of […], yielding a relative change in fluorescence per thousand. K d was calculated from three independent thermophoresis measurements using NanoTemper software (NanoTemper Technologies). […]

MBP-SUFU-SH = test: SYPRO Orange initial fluorescence upon peptide addition, MBP-SUFU-SH; assay type: binding, human; details: excitation 470 nm, emission 570 nm, pH 7.0
Description: (§2) Recombinant MBP-SUFU proteins were diluted to 2.6 µM in 50 mM Na HEPES pH 7.0, 50 mM NaCl, 5 mM β-mercaptoethanol; the peptides GLI1p and GLI1p-SH (Supplementary Table S1b), synthesized by Dr W. Mawby (University of Bristol), were dissolved in the same buffer. Proteins were spun at 14 000g for 20 min at 4°C before adding SYPRO Orange (Molecular Probes) to a final concentration of 6×. Reaction volumes of 25 µl were prepared in 96-well PCR plates with 2.2 µM protein/SYPRO Orange solution and, where applicable, 44 µM peptide. Plates were sealed with optical tape, heated from 20 to 90°C in 12 s 0.2°C steps in an iCycler and fluorescence was detected using an excitation wavelength of 470 nm and an emission wavelength of 570 nm.
(§3) Recombinant MBP-SUFU constructs were diluted to 2.5 µM in 50 mM Na HEPES pH 7.0, 50 mM NaCl, 5 mM β-mercaptoethanol and spun at 14 000g for 20 min at 4°C before the addition of SYPRO Orange to a final 5× concentration of dye. The fluorescence of 100 µl samples was measured in black 96-well plates (Nunc) using excitation at λ = 470 nm and emission at λ = 570 nm. GLI1p or GLI1p-SH peptides prepared in the same buffer as above were added in the given ratios and mixed before a second reading was taken. Readings post-peptide addition were divided by the corresponding pre-peptide addition measurements to obtain normalized results. […]

[2] = tested on: MBP-SUFU-FL, mutation of Glu376; test: Microscale thermophoresis, MBP-SUFU-FL mutated at Glu376; assay type: binding, human; details: mutation of Glu376 in MBP-SUFU-FL, data not shown
Description: as §1

MBP-SUFU-FL = biological target: T1, MBP-SUFU-FL (Homo sapiens, UniProt Q9UMX1); test: SYPRO Orange initial fluorescence upon peptide addition, MBP-SUFU-FL; assay type: binding; details: excitation 470 nm, emission 570 nm, pH 7.0
T1 construct: containing residues 32–483 of human SUFU and a C-terminal hexahistidine tag; hexahistidine tag (C); made in house; host or cells: Escherichia coli JM109 (DE3)
Description: as §2, §3

Chain of MBP-SUFU-SH (Q9UMX1 32-278 limits assumed): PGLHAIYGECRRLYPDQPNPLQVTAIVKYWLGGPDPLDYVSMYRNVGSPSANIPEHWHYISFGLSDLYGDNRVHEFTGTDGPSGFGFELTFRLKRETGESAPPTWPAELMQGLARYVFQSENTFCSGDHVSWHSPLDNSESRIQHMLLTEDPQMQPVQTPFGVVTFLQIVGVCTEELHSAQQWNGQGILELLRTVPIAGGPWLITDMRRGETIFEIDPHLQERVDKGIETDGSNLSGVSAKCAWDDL
Chain of MBP-SUFU-SH (Q9UMX1 361-483 limits assumed): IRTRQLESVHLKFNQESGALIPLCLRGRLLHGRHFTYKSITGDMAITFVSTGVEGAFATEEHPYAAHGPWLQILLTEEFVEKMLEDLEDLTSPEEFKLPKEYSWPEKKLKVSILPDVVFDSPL
T1 sequence (Q9UMX1 32-483, other chains not shown): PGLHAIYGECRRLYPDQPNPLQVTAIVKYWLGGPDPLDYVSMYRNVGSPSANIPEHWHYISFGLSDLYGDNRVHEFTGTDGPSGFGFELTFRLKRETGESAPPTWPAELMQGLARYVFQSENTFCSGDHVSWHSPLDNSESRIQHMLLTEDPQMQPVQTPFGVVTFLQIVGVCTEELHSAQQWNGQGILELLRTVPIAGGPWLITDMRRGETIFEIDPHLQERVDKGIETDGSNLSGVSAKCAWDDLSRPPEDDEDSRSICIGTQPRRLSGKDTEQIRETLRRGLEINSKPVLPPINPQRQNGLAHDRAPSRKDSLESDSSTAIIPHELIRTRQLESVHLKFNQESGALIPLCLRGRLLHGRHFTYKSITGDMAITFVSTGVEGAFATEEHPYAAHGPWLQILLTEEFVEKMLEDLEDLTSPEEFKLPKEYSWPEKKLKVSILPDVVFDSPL

## GLI1p: human GLI1-derived peptide; residues 115–131, containing the highly conserved SYGH motif (TSPGGSYGHLSIGTMSP)
[1]
  detectable binding: abolished detectable binding
MBP-SUFU-SH
  initial fluorescence upon addition of GLI1p: no such effect
[2]
  detectable binding: abolished detectable binding
MBP-SUFU-FL
  initial fluorescence upon addition of GLI1p: high initial fluorescence values
